Experiment in all cases: inhibition of tumour cell growth, NCI panel, 48 h
The subject of test [1] is UACC-62.
Test [2] has as its system SR.
Test [3] relates to K562.
Test [4] has as its system NCI-H460.
The test system of test [5] is HCT-116.
The test system of test [6] is OVCAR-3.
The subject of test [7] is SF-268.
Test [8] deals with U-251.
Test [9] relates to PC-3.
Test [10] relates to Malme-3M.
Test [11] relates to A498.
Test [12] deals with NCI/ADR-RES.
Test [13] deals with TK-10.
Test [14] deals with HCT-15.
Test [15] relates to MDA-MB-435.
In test [16] the test system is HOP-92.
Test [17] deals with DU-145.
The subject of test [18] is SF-539.
For test [19], the system named is Hs-578T.
For test [20], the system named is MCF7.

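1) Cells in 96-well plates. 2) Compound, 48 h, 5 concentrations. 3) Linear interpolation between surrounding doses. 4) Unreached endpoint = highest concentration. At the GI50, growth is halved.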 The source made the active and inactive calls. Cut-off read from the data, not from the text of the source: active = GI50 up to about 1.1 µM and inactive = higher. Where only a bound is given, the exact number is not on record here.

On to `NCC1CCCCC1.O=C(O)NCC1CCCCC1`, for which the GI50 in test [1] is 18.7 µM (inactive); in test [2] it was 23.4 µM (inactive); in [3], 6.28 µM (inactive); in [4], 13.4 µM (inactive); in test [5], 27.6 µM (inactive); in [6], 4.89 µM (inactive). Besides, the GI50 in [7] is 12.8 µM (inactive); in test [8], 7.45 µM (inactive); in test [9] it was 17.7 µM (inactive); in test [10], 2.29 µM (inactive); in [11], 15 µM (inactive); in test [12] it was 26 µM (inactive). The GI50 in [13] was 30 µM (inactive); in test [14], 23.8 µM; in [15], 22.9 µM (inactive); in test [16], 3.95 µM (inactive); in [17] it was 21.1 µM (inactive).
Consider `Cc1cc2cc3ccccc3cc2c(=O)[nH]1`, for which the GI50 in test [1], in [2], in test [18], in [3], in test [4] and in [5] was > 10 µM (inactive) throughout. Besides, the GI50 in [6], in [7], in [8], in [9], in test [13] and in test [15] was > 10 µM (inactive) each time. In addition, the GI50 in [16], in test [17], in test [19] and in test [20] was > 10 µM (inactive) in each case.
For the compound `C=CCN1CC2CN=NC2(C#N)C1` (stereo not given), the GI50 in [1], in test [2], in [3], in [4], in test [5] and in test [6] was > 100 µM (inactive) in each case. For the same compound, the GI50 in test [7], in [8], in [9], in test [10], in test [11] and in test [12] was > 100 µM (inactive) throughout. For the same compound, the GI50 was > 100 µM (inactive) in [13]; over 100 µM in test [14]; > 100 µM (inactive) in [15]; 2.33 µM (inactive) in test [16]; > 100 µM (inactive) in test [17]; > 100 µM (inactive) in test [20].
Take `NNC(=S)N1CCN(C(=S)NN)CC1`: the GI50 in [1], in [2], in [4], in test [5], in [6] and in test [7] was > 100 µM (inactive) in each case. The GI50 in [8] was > 100 µM (inactive); in test [9] it was > 100 µM (inactive); in test [10], > 100 µM (inactive); in test [11], 4.97 µM (inactive); in test [15], > 100 µM (inactive); in test [16], > 100 µM (inactive). In addition, the GI50 in test [17] and in [19] was > 100 µM (inactive) in each case.
Regarding `CC(C)NC(=O)OCc1c(COC(=O)NC(C)C)n(C)c2c1ccc1cc(Cl)c(Cl)cc12`, the GI50 in test [1] was 12 µM (inactive); in test [2] it was 2.64 µM (inactive); in test [18] it was 13.5 µM (inactive); in test [3] it was 4.44 µM (inactive); in test [4], 3.41 µM (inactive); in test [5], 11.7 µM (inactive). Moreover, the GI50 was 16.6 µM (inactive) in [6]; 13.8 µM (inactive) in [7]; 15.9 µM (inactive) in test [8]; 14.9 µM (inactive) in test [9]; 10.8 µM (inactive) in test [10]; 1.75 µM (inactive) in test [11]. Moreover, the GI50 in test [12] was 15.9 µM (inactive); in test [13] it was 5.43 µM (inactive); in test [14], 12.7 µM; in test [15] it was 6.43 µM (inactive); in test [16], 11.4 µM (inactive); in [19], 23.8 µM (inactive). For the same compound, in test [20], the GI50 is 3.28 µM (inactive).
With `Cc1ccc(S(=O)(=O)[C@@H](Cl)[C@H]2N=C(Cl)NN=C2c2ccccc2)cc1`, the GI50 in test [1] was 15.1 µM (inactive); in [2], 27.2 µM (inactive); in test [18], 30.1 µM (inactive); in test [3], 29.5 µM (inactive); in test [4] it was 37.1 µM (inactive); in test [5], 25.1 µM (inactive). Also, the GI50 was 14.7 µM (inactive) in test [6]; 18.3 µM (inactive) in test [7]; 21.5 µM (inactive) in test [8]; 16.7 µM (inactive) in [9]; 20.7 µM (inactive) in [10]; 15.5 µM (inactive) in test [11]. Moreover, the GI50 in test [12] is 21.4 µM (inactive); in test [13], 41.8 µM (inactive); in test [14], 22.2 µM; in [15], 22.1 µM (inactive); in test [16], 23 µM (inactive); in test [17], 23.2 µM (inactive). Further, the GI50 in test [20] was 26.9 µM (inactive).
Take `Cc1sc2nc3n(c(=O)c2c1C)N=CN(c1ccccc1)C3`: the GI50 is > 100 µM (inactive) in test [1]; > 100 µM (inactive) in test [2]; > 100 µM (inactive) in test [3]; > 100 µM (inactive) in [4]; > 100 µM (inactive) in test [5]; 19.4 µM (inactive) in test [6]. The GI50 in test [7] is 23.4 µM (inactive); in test [8], 52.4 µM (inactive); in test [9], > 100 µM (inactive); in test [10] it was 32 µM (inactive); in [11], > 100 µM (inactive); in test [12], > 100 µM (inactive). For the same compound, the GI50 is > 100 µM (inactive) in [13]; over 100 µM in [14]; > 100 µM (inactive) in test [15]; 23.7 µM (inactive) in test [16]; > 100 µM (inactive) in test [17]; > 100 µM (inactive) in [20].
As to `C[C@@H]1CC[C@]2(C(=O)O)CC[C@]3(C)C(=CC[C@@H]4[C@@]5(C)CC[C@H](O)C(C)(C)[C@@H]5CC[C@]43C)[C@@H]2[C@]1(C)O` [POMOLIC ACID], the GI50 in test [1] was 3.49 µM (inactive); in [2], 13.9 µM (inactive); in test [18] it was 3.25 µM (inactive); in test [3], 6.49 µM (inactive); in [4] it was 5.41 µM (inactive); in test [5], 12.2 µM (inactive). In addition, the GI50 is 18.6 µM (inactive) in test [6]; 17.1 µM (inactive) in test [7]; 14.1 µM (inactive) in test [8]; 12.3 µM (inactive) in test [10]; 19 µM (inactive) in [11]; 15.5 µM (inactive) in test [12]. Further, the GI50 in test [13] was 14.5 µM (inactive); in [14], 10.6 µM; in test [15] it was 15.5 µM (inactive); in test [16], 4.45 µM (inactive); in [17], 8.97 µM (inactive); in [19], 3.52 µM (inactive). Further, in [20], the GI50 was 20 µM (inactive).

These data come from ChEMBL document CHEMBL1201862, “PubChem BioAssay data set” (2004).
